Test results as given in PubChem BioAssay (NCI).
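Protocol summary: plate cells (96-well), add compound at 5 concentrations, incubate 48 h, interpolate endpoints linearly. TGI: concentration producing complete growth inhibition.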

Experiments:
Test in all cases: NCI-60 cell line screen, 48 h
UACC-62 melanoma = test system: UACC-62 melanoma
RPMI-8226 leukemia = test system: RPMI-8226 leukemia
OVCAR-3 ovarian = test system: OVCAR-3 ovarian
SK-MEL-2 melanoma = test system: SK-MEL-2 melanoma
U251 CNS = test system: U251 CNS
786-0 renal = test system: 786-0 renal
SK-MEL-5 melanoma = test system: SK-MEL-5 melanoma
COLO 205 colon = test system: COLO 205 colon
A498 renal = test system: A498 renal
MALME-3M melanoma = test system: MALME-3M melanoma
NCI-H23 lung = test system: NCI-H23 lung
A549 NSCLC = test system: A549 NSCLC
HT29 colon = test system: HT29 colon
ACHN renal = test system: ACHN renal
MDA-MB-231 breast = test system: MDA-MB-231 breast
HCT-116 colon = test system: HCT-116 colon
MDA-N = test system: MDA-N
SF-539 CNS = test system: SF-539 CNS
MOLT-4 leukemia = test system: MOLT-4 leukemia
NCI-H522 lung = test system: NCI-H522 lung
MCF7 breast = test system: MCF7 breast
OVCAR-5 ovarian = test system: OVCAR-5 ovarian
T-47D breast = test system: T-47D breast
HS 578T breast = test system: HS 578T breast
HCT-15 colon = test system: HCT-15 colon
NCI-H460 lung = test system: NCI-H460 lung
SF-268 CNS = test system: SF-268 CNS
HOP-62 NSCLC = test system: HOP-62 NSCLC
SNB-75 CNS = test system: SNB-75 CNS
DU-145 prostate = test system: DU-145 prostate
SN12C renal = test system: SN12C renal
SW-620 colon = test system: SW-620 colon
NCI-H226 lung = test system: NCI-H226 lung
IGROV1 ovarian = test system: IGROV1 ovarian
RXF 393 renal = test system: RXF 393 renal
SK-MEL-28 melanoma = test system: SK-MEL-28 melanoma
SNB-19 CNS = test system: SNB-19 CNS
UO-31 renal = test system: UO-31 renal
MDA-MB-435 = test system: MDA-MB-435
NCI/ADR-RES ovarian = test system: NCI/ADR-RES ovarian
K-562 leukemia = test system: K-562 leukemia
BT-549 breast = test system: BT-549 breast
EKVX NSCLC = test system: EKVX NSCLC
UACC-257 melanoma = test system: UACC-257 melanoma
M14 melanoma = test system: M14 melanoma
KM12 colon = test system: KM12 colon
TK-10 renal = test system: TK-10 renal
SK-OV-3 ovarian = test system: SK-OV-3 ovarian
OVCAR-8 ovarian = test system: OVCAR-8 ovarian
HOP-92 NSCLC = test system: HOP-92 NSCLC
SR leukemia = test system: SR leukemia
PC-3 prostate = test system: PC-3 prostate
SF-295 CNS = test system: SF-295 CNS
HL-60(TB) leukemia = test system: HL-60(TB) leukemia
LOX IMVI melanoma = test system: LOX IMVI melanoma
OVCAR-4 ovarian = test system: OVCAR-4 ovarian
CAKI-1 renal = test system: CAKI-1 renal

## Clc1cccc(Cl)c1C(Nc1nncs1)Nc1nncs1
UACC-62 melanoma
  TGI: > 100 µM
RPMI-8226 leukemia
  TGI: > 100 µM
OVCAR-3 ovarian
  TGI: > 100 µM
SK-MEL-2 melanoma
  TGI: > 100 µM
U251 CNS
  TGI: > 100 µM
786-0 renal
  TGI: > 100 µM
SK-MEL-5 melanoma
  TGI: > 100 µM
COLO 205 colon
  TGI: > 100 µM
A498 renal
  TGI: > 100 µM
MALME-3M melanoma
  TGI: > 100 µM
NCI-H23 lung
  TGI: > 100 µM
A549 NSCLC
  TGI: > 100 µM
HT29 colon
  TGI: > 100 µM
ACHN renal
  TGI: > 100 µM
MDA-MB-231 breast
  TGI: > 100 µM
HCT-116 colon
  TGI: > 100 µM
MDA-N
  TGI: 25.5 µM
SF-539 CNS
  TGI: > 100 µM
MOLT-4 leukemia
  TGI: > 100 µM
NCI-H522 lung
  TGI: 70.9 µM
MCF7 breast
  TGI: > 100 µM
OVCAR-5 ovarian
  TGI: > 100 µM
T-47D breast
  TGI: > 100 µM
HS 578T breast
  TGI: > 100 µM
HCT-15 colon
  TGI: > 100 µM
NCI-H460 lung
  TGI: 68.5 µM
SF-268 CNS
  TGI: > 100 µM
HOP-62 NSCLC
  TGI: > 100 µM
SNB-75 CNS
  TGI: > 100 µM
DU-145 prostate
  TGI: > 100 µM
SN12C renal
  TGI: > 100 µM
SW-620 colon
  TGI: > 100 µM
NCI-H226 lung
  TGI: 99.7 µM
IGROV1 ovarian
  TGI: > 100 µM
RXF 393 renal
  TGI: > 100 µM
SK-MEL-28 melanoma
  TGI: 54.5 µM
SNB-19 CNS
  TGI: > 100 µM
UO-31 renal
  TGI: > 100 µM
MDA-MB-435
  TGI: 60.6 µM
NCI/ADR-RES ovarian
  TGI: > 100 µM
K-562 leukemia
  TGI: > 100 µM
BT-549 breast
  TGI: > 100 µM
EKVX NSCLC
  TGI: > 100 µM
UACC-257 melanoma
  TGI: 71.1 µM
M14 melanoma
  TGI: > 100 µM
KM12 colon
  TGI: > 100 µM
TK-10 renal
  TGI: 84.1 µM
SK-OV-3 ovarian
  TGI: > 100 µM
OVCAR-8 ovarian
  TGI: > 100 µM
HOP-92 NSCLC
  TGI: > 100 µM
SR leukemia
  TGI: > 100 µM
PC-3 prostate
  TGI: > 100 µM
SF-295 CNS
  TGI: > 100 µM
HL-60(TB) leukemia
  TGI: 43.9 µM
LOX IMVI melanoma
  TGI: > 100 µM
OVCAR-4 ovarian
  TGI: > 100 µM
CAKI-1 renal
  TGI: > 100 µM

## O=C1Nc2ccccc2S/C1=C\c1ccc(C(F)(F)F)cc1
UACC-62 melanoma
  TGI: > 100 µM
RPMI-8226 leukemia
  TGI: > 100 µM
OVCAR-3 ovarian
  TGI: > 100 µM
SK-MEL-2 melanoma
  TGI: > 100 µM
U251 CNS
  TGI: > 100 µM
786-0 renal
  TGI: > 100 µM
SK-MEL-5 melanoma
  TGI: > 100 µM
COLO 205 colon
  TGI: > 100 µM
A498 renal
  TGI: > 100 µM
MALME-3M melanoma
  TGI: > 100 µM
A549 NSCLC
  TGI: > 100 µM
HT29 colon
  TGI: > 100 µM
ACHN renal
  TGI: > 100 µM
MDA-MB-231 breast
  TGI: > 100 µM
HCT-116 colon
  TGI: > 100 µM
MDA-N
  TGI: > 100 µM
SF-539 CNS
  TGI: > 100 µM
MOLT-4 leukemia
  TGI: > 100 µM
NCI-H522 lung
  TGI: > 100 µM
MCF7 breast
  TGI: > 100 µM
OVCAR-5 ovarian
  TGI: > 100 µM
T-47D breast
  TGI: > 100 µM
HS 578T breast
  TGI: > 100 µM
HCT-15 colon
  TGI: > 100 µM
NCI-H460 lung
  TGI: > 100 µM
SF-268 CNS
  TGI: > 100 µM
HOP-62 NSCLC
  TGI: > 100 µM
SNB-75 CNS
  TGI: > 100 µM
DU-145 prostate
  TGI: > 100 µM
SN12C renal
  TGI: > 100 µM
SW-620 colon
  TGI: > 100 µM
NCI-H226 lung
  TGI: > 100 µM
IGROV1 ovarian
  TGI: > 100 µM
RXF 393 renal
  TGI: > 100 µM
SK-MEL-28 melanoma
  TGI: > 100 µM
SNB-19 CNS
  TGI: > 100 µM
UO-31 renal
  TGI: > 100 µM
MDA-MB-435
  TGI: > 100 µM
NCI/ADR-RES ovarian
  TGI: > 100 µM
K-562 leukemia
  TGI: > 100 µM
BT-549 breast
  TGI: > 100 µM
EKVX NSCLC
  TGI: > 100 µM
UACC-257 melanoma
  TGI: > 100 µM
M14 melanoma
  TGI: > 100 µM
KM12 colon
  TGI: > 100 µM
TK-10 renal
  TGI: > 100 µM
SK-OV-3 ovarian
  TGI: > 100 µM
OVCAR-8 ovarian
  TGI: > 100 µM
HOP-92 NSCLC
  TGI: > 100 µM
SR leukemia
  TGI: > 100 µM
PC-3 prostate
  TGI: > 100 µM
SF-295 CNS
  TGI: > 100 µM
HL-60(TB) leukemia
  TGI: > 100 µM
LOX IMVI melanoma
  TGI: > 100 µM
OVCAR-4 ovarian
  TGI: > 100 µM
CAKI-1 renal
  TGI: 93.3 µM
